Assay results: patent publication US7585873B2, “1-(aminoalkyl)-3-sulfonylazaindoles as 5-hydroxytryptamine-6 ligands” (Wyeth, priority 2002, dated 2009)
Structures can show the parent of a compound that is named as a salt. Where two headings read alike, the source gives them in different places.

Tests used:
[1] = target: T1, human cloned 5-HT6 receptors (Homo sapiens, UniProt P50406); experiment: 5-HT6 binding affinity, [3H]-LSD displacement on membranes of Hela cells expressing human cloned 5-HT6 receptors
T1 construct: expressed in transfected cells; host or cells: Hela cells
T1 sequence (P50406 whole entry): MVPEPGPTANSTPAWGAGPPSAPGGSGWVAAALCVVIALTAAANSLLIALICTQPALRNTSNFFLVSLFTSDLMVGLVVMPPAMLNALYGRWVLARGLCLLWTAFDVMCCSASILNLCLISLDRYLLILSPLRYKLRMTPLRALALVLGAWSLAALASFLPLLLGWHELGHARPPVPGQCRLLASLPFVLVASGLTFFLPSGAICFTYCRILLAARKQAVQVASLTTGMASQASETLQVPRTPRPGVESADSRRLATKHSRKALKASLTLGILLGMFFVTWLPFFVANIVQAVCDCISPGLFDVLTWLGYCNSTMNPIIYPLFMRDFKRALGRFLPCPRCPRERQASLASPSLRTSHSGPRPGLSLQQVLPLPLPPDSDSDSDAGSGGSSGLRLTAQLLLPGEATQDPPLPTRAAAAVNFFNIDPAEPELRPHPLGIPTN

[2] = [3H]-LSD 3.0 nM, Hela cell membranes, 120 min at room temperature, read-out: 5-HT6 Binding Ki

Row | SMILES | melting point | Ki [1, 2] | further results
1 | CN(C)CCn1cc(S(=O)(=O)c2cc(Cl)ccc2Cl)c2cccnc21 (as salt: hydrochloride) [Example 38] | 230 to 232 °C | – | –
2 | O=S(=O)(c1cccc(F)c1)c1cn(CCN2CCCC2)c2ncccc12 [Example 28] | – | 88 nM | –
3 | NCCn1cc(S(=O)(=O)c2cccc(C(F)(F)F)c2)c2cccnc21 (as salt: hydrochloride) [Example 22] | 179 to 183 °C | – | –
4 | CN(C)CCn1cc(S(=O)(=O)c2cccc(C#N)c2)c2cccnc21 [Example 44] | 148 to 150 °C | 63 nM | –
5 | Cc1cccc(S(=O)(=O)c2cn(CCN(C)C)c3ncccc23)c1 [Example 40] | 195 to 197 °C | 10 nM | –
6 | CN(C)CCn1cc(S(=O)(=O)c2cccs2)c2cccnc21 [Example 25] | – | 15 nM | –
7 | O=S(=O)(c1cn(CCNCc2ccccc2)c2ncccc12)c1c(Cl)nc2sccn12 [Example 61] | 173 to 175 °C | 9 nM | –
8 | COc1ccc2c(n1)c(S(=O)(=O)c1cccc(F)c1)cn2CCN(C)C [Example 79] | 208 to 212 °C | 11 nM | –
9 | CCN(CC)CCn1cc(S(=O)(=O)c2cccc(Cl)c2)c2cccnc21 [Example 35] | 74 to 76 °C | 20 nM | –
10 | O=S(=O)(c1cccc(F)c1)c1cn(CCN2CCCCC2)c2ncccc12 [Example 29] | – | 158 nM | –
11 | COc1ccc2c(S(=O)(=O)c3ccccc3)cn(CCN(C)C)c2n1 [Example 42] | – | 39 nM | –
12 | COc1ccc2c(n1)c(S(=O)(=O)c1cccc3ccccc13)cn2CCN(C)C [Example 80] | 233 to 235 °C | 2 nM | –
13 | NCCn1cc(S(=O)(=O)c2cccc(F)c2)c2cccnc21 (as salt: hydrochloride) [Example 17] | 202 to 204 °C | – | –
14 | CC(CN)n1cc(S(=O)(=O)c2ccccc2)c2cccnc21 (stereo not drawn) (as salt: hydrochloride) [Example 68] | 180 to 185 °C | – | –
15 | CN(C)CCn1cc(S(=O)(=O)c2cccc(Cl)c2)c2cccnc21 [Example 14] | – | 2 nM | –
16 | NCCn1cc(S(=O)(=O)c2cccc3ccccc23)c2cccnc21 (as salt: hydrochloride) [Example 16] | 148 to 170 °C | – | –
17 | CNCCn1cc(S(=O)(=O)c2cccc(Cl)c2)c2cccnc21 [Example 57, N-(2-{3-[(3-Chlorophenyl)sulfonyl]-1H-pyrrolo[2,3-b]pyridin-1-yl}ethyl)-N-methylamine Hydrochloride] | – | – | Ki ([1]; read-out: 5-HT6 Binding Ki): 0.3 nM
18 | CN(C)CCn1cc(S(=O)(=O)c2c(Cl)nc3sccn23)c2cccnc21 (as salt: hydrochloride) [Example 34] | 180 to 182 °C | – | –
19 | CN(C)CCn1cc(S(=O)(=O)c2cc(Cl)cc(Cl)c2)c2cccnc21 (as salt: hydrochloride) [Example 26] | 227 to 232 °C | – | –
20 | CN(C)CCn1cc(S(=O)(=O)c2cccc(Cl)c2)c2cccnc21 (as salt: hydrochloride) [Example 14] | 182 to 186 °C | – | –
21 | CN(C)CCn1cc(S(=O)(=O)c2c(Cl)nc3sccn23)c2cccnc21 [Example 34] | – | 2 nM | –
22 | O=S(=O)(c1cccc(F)c1)c1cn(CCN2CCOCC2)c2ncccc12 (as salt: hydrochloride) [Example 30] | 127 to 129 °C | – | –
23 | CN(C)CCn1cc(S(=O)(=O)c2cccc(C(F)(F)F)c2)c2cccnc21 [Example 19] | – | 5 nM | –

Row | SMILES | melting point | Ki [1, 2] | further results
24 | COc1ccc2c(n1)c(S(=O)(=O)c1ccc(Br)cc1)cn2CCN(C)C [Example 78] | 225 to 226 °C | 4 nM | –
25 | CN(C)CCn1cc(S(=O)(=O)c2ccccc2C(F)(F)F)c2cccnc21 (as salt: hydrochloride) [Example 20] | 196 to 198 °C | – | –
26 | CN(C)CCn1cc(S(=O)(=O)c2cc(Cl)ccc2Cl)c2cccnc21 [Example 38] | – | 12 nM | –
27 | CC(CN)n1cc(S(=O)(=O)c2ccccc2)c2cccnc21 (stereo not drawn) [Example 68] | – | 14 nM | –
28 | CN(C)CCn1cc(S(=O)(=O)c2cccc(F)c2)c2ncccc21 [Example 77, N,N-Dimethyl-N-(2-{3-[(3-fluorophenyl)sulfonyl]-1H-pyrrolo[3,2-b]pyridin-1-yl}ethyl)amine Dihydrochloride] | – | 200 nM | –
29 | NCCn1cc(S(=O)(=O)c2cccc(F)c2)c2cccnc21 [Example 17] | – | 6 nM | –
30 | NCCn1cc(S(=O)(=O)c2cccc(Cl)c2)c2cccnc21 [Example 12, 2-{3-[(3-Chlorophenyl)sulfonyl]-1H-pyrrolo[2,3-b]pyridin-1-yl}ethylamine dihydrochloride] | – | – | Ki [1]: 20 nM
31 | CN(C)CCn1cc(S(=O)(=O)c2ccc(F)cc2)c2cccnc21 [Example 13] | – | 50 nM | –
32 | CN(C)CCn1cc(S(=O)(=O)c2ccccc2)c2ccc(Br)nc21 [Example 41] | 182 to 184 °C | 41 nM | –
33 | O=S(=O)(c1cn(CCN(Cc2ccccc2)Cc2ccccc2)c2ncccc12)c1c(Cl)nc2sccn12 [Example 39] | 140 to 145 °C | 212 nM | –
34 | CN(C)CCn1cc(S(=O)(=O)c2ccc(Cl)s2)c2cccnc21 [Example 33] | – | 4 nM | –
35 | NCCn1cc(S(=O)(=O)c2ccc3ccccc3c2)c2cccnc21 [Example 67] | – | 24 nM | –
36 | NCCn1cc(S(=O)(=O)c2ccccc2)c2cccnc21 [Example 5, 2-[3-(Phenylsulfonyl)-1H-pyrrolo[2,3-b]pyridin-1-yl]ethylamine dihydrochloride] | – | 6 nM | –
37 | O=S(=O)(c1cccc(F)c1)c1cn(CCN2CCCCC2)c2ncccc12 (as salt: hydrochloride) [Example 29] | 197 to 199 °C | – | –
38 | CCNCCn1cc(S(=O)(=O)c2cccc(Cl)c2)c2cccnc21 [Example 60] | – | 3 nM | –
39 | Cc1c(S(=O)(=O)c2cccc(F)c2)c2cccnc2n1CCN [Example 66] | – | 2 nM | –
40 | NCCn1cc(S(=O)(=O)c2cccs2)c2cccnc21 [Example 23] | – | 9 nM | –
41 | CN(C)CCn1cc(S(=O)(=O)c2c(Cl)cccc2Cl)c2cccnc21 [Example 37] | 220 to 222 °C | 9 nM | –
42 | CN(C)CCn1cc(S(=O)(=O)c2ccc(F)cc2)c2cccnc21 (as salt: hydrochloride) [Example 13] | 189 to 192 °C | – | –
43 | NCCn1cc(S(=O)(=O)c2ccccc2C(F)(F)F)c2cccnc21 (as salt: hydrochloride) [Example 21] | 182 to 185 °C | – | –
44 | NCCn1cc(S(=O)(=O)c2cccc3ccccc23)c2cccnc21 [Example 16] | – | 2 nM | –
45 | NCCn1cc(S(=O)(=O)c2ccc(F)cc2)c2cccnc21 [Example 11, 2-{3-[(4-Fluorophenyl)sulfonyl]-1H-pyrrolo[2,3-b]pyridin-1yl}ethylamine hydrochloride] | – | – | Ki ([1]; read-out: 5-HT6 Binding Ki): 22 nM
46 | NCCn1cc(S(=O)(=O)c2ccc3ccccc3c2)c2cccnc21 (as salt: hydrochloride) [Example 67] | 233 to 238 °C | – | –

Row | SMILES | melting point | Ki [1, 2] | further results
47 | CNCCn1cc(S(=O)(=O)c2cccc(C)c2)c2cccnc21 [Example 62] | 244 to 246 °C | 1 nM | –
48 | CN(C)CCn1cc(S(=O)(=O)c2ccccc2)c2cccnc21 [Example 6, N,N-Dimethyl-N-{2-[3-(phenylsulfonyl)-1H-pyrrolo[2,3-b]pyridin-1-yl]ethyl}amine dihydrochloride] | – | – | Ki ([1]; read-out: 5-HT6 Binding Ki): 23 nM
49 | NCCn1cc(S(=O)(=O)c2cccs2)c2cccnc21 (as salt: hydrochloride) [Example 23] | 202 to 204 °C | – | –
50 | Cc1c(S(=O)(=O)c2ccccc2)c2cccnc2n1CCN [Example 18] | – | 5 nM | –
51 | Cc1c(S(=O)(=O)c2cccc(F)c2)c2cccnc2n1CCN (as salt: hydrochloride) [Example 66] | 239 to 241 °C | – | –
52 | Cc1c(S(=O)(=O)c2cn(CCN(C)C)c3ncccc23)sc2ccc(Cl)cc12 [Example 36] | 212 to 215 °C | 102 nM | –
53 | CNCCn1cc(S(=O)(=O)c2cccc(F)c2)c2cccnc21 [Example 59] | 255 to 260 °C | – | Ki ([1]; read-out: 5-HT6 Binding Ki): 1 nM
54 | CN(C)CCn1cc(S(=O)(=O)c2cccc3ccccc23)c2cccnc21 [Example 15] | – | – | Ki ([1]; read-out: 5-HT6 Binding Ki): 1 nM
55 | NCCn1cc(S(=O)(=O)c2cccc(C(F)(F)F)c2)c2cccnc21 [Example 22] | – | 2 nM | –
56 | O=S(=O)(c1cccc(F)c1)c1cn(CCN2CCOCC2)c2ncccc12 [Example 30] | – | 403 nM | –
57 | CNCCn1cc(S(=O)(=O)c2c(Cl)nc3sccn23)c2cccnc21 [Example 58] | 182 to 186 °C | 1 nM | –
58 | O=S(=O)(c1cccc(Cl)c1)c1cn(CCN2CCCC2)c2ncccc12 [Example 27] | – | 45 nM | –
59 | CN(C)CCn1cc(S(=O)(=O)c2cccc3ccccc23)c2cccnc21 (as salt: hydrochloride) [Example 15] | 203 to 206 °C | – | –
60 | CN(C)CCn1cc(S(=O)(=O)c2ccccc2)c2nc(Cl)ccc21 [Example 81] | 244 to 246 °C | 214 nM | –
61 | CN(C)CCn1cc(S(=O)(=O)c2cccs2)c2cccnc21 (as salt: hydrochloride) [Example 25] | 212 to 216 °C | – | –
62 | NCCn1cc(S(=O)(=O)c2ccccc2C(F)(F)F)c2cccnc21 [Example 21] | – | 2 nM | –
63 | CN(C)CCn1cc(S(=O)(=O)c2ccc(Cl)s2)c2cccnc21 (as salt: hydrochloride) [Example 33] | 169 to 171 °C | – | –
64 | CN(C)CCn1cc(S(=O)(=O)c2cc(Cl)cc(Cl)c2)c2cccnc21 [Example 26] | – | 4 nM | –
65 | CN(C)CCn1cc(S(=O)(=O)c2cccc(C(F)(F)F)c2)c2cccnc21 (as salt: hydrochloride) [Example 19] | 108 to 112 °C | – | –
66 | Cc1ccc(S(=O)(=O)c2cn(CCN)c3ncccc23)cc1 [Example 7, 2-{3-[(4-Methylphenyl)sulfonyl]-1H-pyrrolo[2,3-b]pyridin-1-yl}ethylamine dihydrochloride] | – | 9 nM | –
67 | NCCn1cc(S(=O)(=O)c2cc(Cl)cc(Cl)c2)c2cccnc21 [Example 24] | – | 3 nM | –
68 | NCCn1cc(S(=O)(=O)c2cc(Cl)cc(Cl)c2)c2cccnc21 (as salt: hydrochloride) [Example 24] | 136 to 140 °C | – | –
69 | CN(C)CCn1cc(S(=O)(=O)c2ccccc2C(F)(F)F)c2cccnc21 [Example 20] | – | 11 nM | –
